This note sets out measurements from PubChem BioAssay (NCI).

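48-hour exposure; five concentrations; linearly interpolated endpoints. TGI: concentration producing complete growth inhibition.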 Bounds are passed on as bounds.

Some test systems named below: OVCAR-8 ovarian; SW-620 colon; ACHN renal; MCF7 breast; HCC-2998 colon; OVCAR-5 ovarian; HOP-62 NSCLC; SK-MEL-5 melanoma; HL-60(TB) leukemia; SR leukemia; HCT-116 colon; NCI-H23 lung; COLO 205 colon; LOX IMVI melanoma; TK-10 renal; A549 NSCLC; MDA-N.
Holding throughout (test): DTP human tumour cell line panel, 48 h

The TGI is the concentration giving total growth inhibition. Read a low TGI as greater sensitivity of the cells. With `CCCCCCC1OC23OC1CCC2C(O)CCC3O` (stereo not given), the TGI in the experiment on OVCAR-8 ovarian, with SW-620 colon, in the experiment with ACHN renal, in the experiment on MCF7 breast, in the experiment on HCC-2998 colon and with OVCAR-5 ovarian was greater than 100 µM each time. Further, the TGI with HOP-62 NSCLC, in the experiment on SK-MEL-5 melanoma, in the experiment on HL-60(TB) leukemia, with SR leukemia, in the experiment on HCT-116 colon and with NCI-H23 lung was greater than 100 µM each time. Also, the TGI with COLO 205 colon, in the experiment with LOX IMVI melanoma and in the experiment with TK-10 renal was greater than 100 µM throughout.
Turning to `CCOC(OCC)(OCC)C(Br)CC` (stereo not given), the TGI in the experiment with OVCAR-8 ovarian, with A549 NSCLC, in the experiment with ACHN renal, in the experiment on HCC-2998 colon, in the experiment with OVCAR-5 ovarian and in the experiment on HOP-62 NSCLC was greater than 100 µM each time. The TGI in the experiment with SK-MEL-5 melanoma was greater than 100 µM; with HL-60(TB) leukemia it was greater than 100 µM; with SR leukemia, 49 µM; with HCT-116 colon, 19 µM; with NCI-H23 lung, greater than 100 µM; with COLO 205 colon, greater than 100 µM. Moreover, the TGI in the experiment with LOX IMVI melanoma and with TK-10 renal was greater than 100 µM in each case.
`CC1OC(OC2C(OC(=O)[C@]34CCC(C)(C)C[C@H]3C3=CC[C@@H]5[C@@]6(C)CC[C@H](OC7OC(CO)C(O)C(O)C7OC7OC(CO)C(O)C(O)C7O)C(C)(C)[C@@H]6CC[C@@]5(C)[C@]3(C)CC4)OCC(O)C2O)C(O)C(O)C1OC1OCC(O)C(O)C1O` (stereo not given in full): the TGI in the experiment on OVCAR-8 ovarian came to 38.9 µM; in the experiment on SW-620 colon it was 39.4 µM; in the experiment on A549 NSCLC, 19.2 µM; in the experiment with ACHN renal, 24.5 µM; in the experiment with MCF7 breast it was 29.3 µM; with HCC-2998 colon it was 4.79 µM. Further, the TGI with OVCAR-5 ovarian was found to be 21.7 µM; in the experiment with HOP-62 NSCLC it was 30.8 µM; in the experiment on SK-MEL-5 melanoma, 28 µM; in the experiment on HL-60(TB) leukemia, 15.1 µM; in the experiment on SR leukemia it was 23.8 µM; in the experiment with HCT-116 colon, 44.8 µM. Besides, the TGI was 24.5 µM with NCI-H23 lung, 3.28 µM in the experiment on COLO 205 colon, 37.7 µM in the experiment with LOX IMVI melanoma and 21.7 µM in the experiment with TK-10 renal.
As to `C#CCN(C(=O)C(F)(F)F)C(/C=C\C(=O)OC)(C(=O)OCC)C(=O)OCC`, the TGI with OVCAR-8 ovarian, in the experiment with SW-620 colon, in the experiment on A549 NSCLC, with ACHN renal, with MCF7 breast and in the experiment on HCC-2998 colon was greater than 100 µM throughout. Also, the TGI in the experiment on OVCAR-5 ovarian, in the experiment with HOP-62 NSCLC, in the experiment with SK-MEL-5 melanoma, with HL-60(TB) leukemia, with NCI-H23 lung and with LOX IMVI melanoma was greater than 100 µM throughout. Moreover, the TGI in the experiment on TK-10 renal and in the experiment on MDA-N was greater than 100 µM each time.
Consider `CC(=O)Nc1ccc2c(c1)C(=O)c1ccccc1-2`, for which the TGI with OVCAR-8 ovarian, in the experiment with SW-620 colon, with A549 NSCLC, with ACHN renal, in the experiment on HCC-2998 colon and in the experiment on HOP-62 NSCLC was greater than 100 µM throughout. Besides, the TGI in the experiment on HL-60(TB) leukemia, in the experiment on SR leukemia, in the experiment on HCT-116 colon, with NCI-H23 lung, in the experiment with COLO 205 colon and in the experiment on LOX IMVI melanoma was greater than 100 µM in each case. The TGI with TK-10 renal was greater than 100 µM.
For `COC(=O)/C(=N\N)C(C(=O)C(=O)Nc1cc(Cl)ccc1Cl)c1nc2ccc([N+](=O)[O-])cc2[nH]c1=O` (stereo not given), the TGI in the experiment with OVCAR-8 ovarian, in the experiment with SW-620 colon, with A549 NSCLC, in the experiment with ACHN renal, in the experiment on MCF7 breast and in the experiment on HCC-2998 colon was greater than 100 µM throughout. Moreover, the TGI in the experiment with OVCAR-5 ovarian, in the experiment with HOP-62 NSCLC, in the experiment with SK-MEL-5 melanoma, in the experiment on HL-60(TB) leukemia, with HCT-116 colon and in the experiment on NCI-H23 lung was greater than 100 µM in each case. For the same compound, the TGI in the experiment with LOX IMVI melanoma, in the experiment on TK-10 renal and in the experiment with MDA-N was greater than 100 µM throughout.
With `CCN(CC)c1ccc(Cl)c2c1C(O)(C(C)C)C2(C)C` (stereo not given), the concentration for total growth inhibition (TGI) in the experiment with OVCAR-8 ovarian came to 33.4 µM; in the experiment with SW-620 colon it was 32.6 µM; in the experiment with A549 NSCLC, 35.1 µM; with ACHN renal, 31.3 µM; with HCC-2998 colon, 30.3 µM; in the experiment with OVCAR-5 ovarian, 30.6 µM. The TGI in the experiment with HOP-62 NSCLC is 39 µM; in the experiment on SK-MEL-5 melanoma, 28.8 µM; with HL-60(TB) leukemia it was 38.8 µM; in the experiment on HCT-116 colon, 27 µM; with NCI-H23 lung, 29 µM; in the experiment with COLO 205 colon it was 28.9 µM. In addition, the results for the TGI in the experiment on LOX IMVI melanoma and in the experiment on TK-10 renal were 35.1 µM and 30.2 µM, respectively.
With `CCOC(=O)c1nc2ccc(C(F)(F)F)cc2nc1Oc1ccc(OC)cc1`, the total growth inhibition concentration (TGI) in the experiment on OVCAR-8 ovarian, in the experiment on SW-620 colon, in the experiment with A549 NSCLC, with ACHN renal, in the experiment with MCF7 breast and in the experiment with OVCAR-5 ovarian was greater than 100 µM each time. Moreover, the TGI with HOP-62 NSCLC, in the experiment with SK-MEL-5 melanoma, in the experiment with HCT-116 colon, with COLO 205 colon, in the experiment on LOX IMVI melanoma and in the experiment with TK-10 renal was greater than 100 µM in each case. The same compound came in with a total growth inhibition concentration (TGI) in the experiment on MDA-N greater than 100 µM.
Take `COc1cc2c(cc1OCCCOc1cc3c(cc1OC)C(=O)N1CCC[C@H]1C(=O)N3)N=C[C@@H]1CCCN1C2=O`: the TGI was greater than 100 µM in the experiment with OVCAR-8 ovarian; 56.5 µM with SW-620 colon; 57.4 µM in the experiment with A549 NSCLC; 38.5 µM with ACHN renal; 27.3 µM with MCF7 breast; 31 µM in the experiment with HCC-2998 colon. Besides, the concentration for total growth inhibition (TGI) was 59.6 µM in the experiment with OVCAR-5 ovarian; greater than 100 µM in the experiment on HOP-62 NSCLC; 26.8 µM in the experiment with SK-MEL-5 melanoma; 42.3 µM in the experiment on HL-60(TB) leukemia; 3.71 µM in the experiment with SR leukemia; greater than 100 µM in the experiment with HCT-116 colon. Further, the TGI is 57.4 µM with NCI-H23 lung, 12.1 µM in the experiment with COLO 205 colon, 18.7 µM with LOX IMVI melanoma and 84.5 µM with TK-10 renal.
